Patent US11793849B2, “Method of Chinese herbal medicine extract used for treating multiple diseases caused by drug resistant bacteria infection” (priority 2016, dated 2023)
In brackets after ≈: the same amount, converted by molar mass. Where two headings read alike, the source gives them in different places. One block for each molecule: values may come before it.

Tested on: MDRPA
Assay: MIC determination, microdilution broth method;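 also: broth microdilution per NCCLS recommendations, testing Pithecellobium clypearia water or ethanol extracts against multidrug-resistant Pseudomonas aeruginosa, with MIC50 and MIC90 derived statistically from individual MICs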
[1] = 20 MDRPAs, EA = 60% ethanol extract
[2] = 20 MDRPAs, EA = 95% ethanol extract
[3] = MDRPAs P1-P20, single use, EA=P. clypearia 10% ethanol extract
[4] = MDRPAs P1-P20, single use, EA=P. clypearia water extract
[5] = Pseudomonas aeruginosa, read-out: MIC (single use), strain P1, EA=P. clypearia 10% ethanol extract
[6] = Pseudomonas aeruginosa, read-out: MIC (single use), strain P1, EA=P. clypearia water extract
[7] = Pseudomonas aeruginosa, read-out: MIC (single use), strain P2, EA=P. clypearia 10% ethanol extract
[8] = Pseudomonas aeruginosa, read-out: MIC (single use), strain P2, EA=P. clypearia water extract
[9] = Pseudomonas aeruginosa, read-out: MIC (single use), strain P3, EA=P. clypearia 10% ethanol extract
[10] = Pseudomonas aeruginosa, read-out: MIC (single use), strain P3, EA=P. clypearia water extract
[11] = Pseudomonas aeruginosa, read-out: MIC (single use), strain P4, EA=P. clypearia 10% ethanol extract
[12] = Pseudomonas aeruginosa, read-out: MIC (single use), strain P4, EA=P. clypearia water extract
[13] = Pseudomonas aeruginosa, read-out: MIC (single use), strain P5, EA=P. clypearia 10% ethanol extract
[14] = Pseudomonas aeruginosa, read-out: MIC (single use), strain P5, EA=P. clypearia water extract
[15] = Pseudomonas aeruginosa, read-out: MIC (single use), strain P6, EA=P. clypearia 10% ethanol extract
[16] = Pseudomonas aeruginosa, read-out: MIC (single use), strain P6, EA=P. clypearia water extract
[17] = Pseudomonas aeruginosa, read-out: MIC (single use), strain P7, EA=P. clypearia 10% ethanol extract
[18] = Pseudomonas aeruginosa, read-out: MIC (single use), strain P7, EA=P. clypearia water extract
[19] = Pseudomonas aeruginosa, read-out: MIC (single use), strain P8, EA=P. clypearia 10% ethanol extract
[20] = Pseudomonas aeruginosa, read-out: MIC (single use), strain P8, EA=P. clypearia water extract
[21] = Pseudomonas aeruginosa, read-out: MIC (single use), strain P9, EA=P. clypearia 10% ethanol extract
[22] = Pseudomonas aeruginosa, read-out: MIC (single use), strain P9, EA=P. clypearia water extract
[23] = Pseudomonas aeruginosa, read-out: MIC (single use), strain P10, EA=P. clypearia 10% ethanol extract
[24] = Pseudomonas aeruginosa, read-out: MIC (single use), strain P10, EA=P. clypearia water extract
[25] = Pseudomonas aeruginosa, read-out: MIC (single use), strain P11, EA=P. clypearia 10% ethanol extract
[26] = Pseudomonas aeruginosa, read-out: MIC (single use), strain P11, EA=P. clypearia water extract
[27] = Pseudomonas aeruginosa, read-out: MIC (single use), strain P12, EA=P. clypearia 10% ethanol extract
[28] = Pseudomonas aeruginosa, read-out: MIC (single use), strain P12, EA=P. clypearia water extract
[29] = Pseudomonas aeruginosa, read-out: MIC (single use), strain P13, EA=P. clypearia 10% ethanol extract
[30] = Pseudomonas aeruginosa, read-out: MIC (single use), strain P13, EA=P. clypearia water extract
[31] = Pseudomonas aeruginosa, read-out: MIC (single use), strain P14, EA=P. clypearia 10% ethanol extract
[32] = Pseudomonas aeruginosa, read-out: MIC (single use), strain P14, EA=P. clypearia water extract
[33] = Pseudomonas aeruginosa, read-out: MIC (single use), strain P15, EA=P. clypearia 10% ethanol extract
[34] = Pseudomonas aeruginosa, read-out: MIC (single use), strain P15, EA=P. clypearia water extract
[35] = Pseudomonas aeruginosa, read-out: MIC (single use), strain P16, EA=P. clypearia 10% ethanol extract
[36] = Pseudomonas aeruginosa, read-out: MIC (single use), strain P16, EA=P. clypearia water extract
[37] = Pseudomonas aeruginosa, read-out: MIC (single use), strain P17, EA=P. clypearia 10% ethanol extract
[38] = Pseudomonas aeruginosa, read-out: MIC (single use), strain P17, EA=P. clypearia water extract
[39] = Pseudomonas aeruginosa, read-out: MIC (single use), strain P18, EA=P. clypearia 10% ethanol extract
[40] = Pseudomonas aeruginosa, read-out: MIC (single use), strain P18, EA=P. clypearia water extract
[41] = Pseudomonas aeruginosa, read-out: MIC (single use), strain P19, EA=P. clypearia 10% ethanol extract
[42] = Pseudomonas aeruginosa, read-out: MIC (single use), strain P19, EA=P. clypearia water extract
[43] = Pseudomonas aeruginosa, read-out: MIC (single use), strain P20, EA=P. clypearia 10% ethanol extract
[44] = Pseudomonas aeruginosa, read-out: MIC (single use), strain P20, EA=P. clypearia water extract
[45] = single use, 20 MDRPAs, section of the 10% ethanol extract
[46] = single use, 20 MDRPAs, section of the 60% ethanol extract
[47] = single use, 20 MDRPAs, section of the 95% ethanol extract

MIC50 [1]: 32 µg/mL (≈ 107 µM)
MIC90 [1]: 64 µg/mL (≈ 214 µM)
MIC Range [1]: 4 to 64 µg/mL
MIC50 [2]: 32 µg/mL (≈ 107 µM)
MIC90 [2]: 64 µg/mL (≈ 214 µM)
MIC Range [2]: 4 to 64 µg/mL
MIC50 [3]: 32 µg/mL (≈ 107 µM)
MIC90 [3]: 64 µg/mL (≈ 214 µM)
MIC Range [3]: 4 to 64 µg/mL
MIC50 [4]: 32 µg/mL (≈ 107 µM)
MIC90 [4]: 64 µg/mL (≈ 214 µM)
MIC Range [4]: 4 to 64 µg/mL
MIC50 (Pseudomonas aeruginosa): 32 µg/mL (≈ 107 µM)
MIC90 (Pseudomonas aeruginosa): 64 µg/mL (≈ 214 µM)
MIC [5]: 32 µg/mL (≈ 107 µM)
MIC [6]: 32 µg/mL (≈ 107 µM)
MIC [7]: 64 µg/mL (≈ 214 µM)
MIC [8]: 64 µg/mL (≈ 214 µM)
MIC [9]: 64 µg/mL (≈ 214 µM)
MIC [10]: 64 µg/mL (≈ 214 µM)
MIC [11]: 32 µg/mL (≈ 107 µM)
MIC [12]: 32 µg/mL (≈ 107 µM)
MIC [13]: 64 µg/mL (≈ 214 µM)
MIC [14]: 64 µg/mL (≈ 214 µM)
MIC [15]: 32 µg/mL (≈ 107 µM)
MIC [16]: 32 µg/mL (≈ 107 µM)
MIC [17]: 32 µg/mL (≈ 107 µM)
MIC [18]: 32 µg/mL (≈ 107 µM)
MIC [19]: 64 µg/mL (≈ 214 µM)
MIC [20]: 64 µg/mL (≈ 214 µM)
MIC [21]: 32 µg/mL (≈ 107 µM)
MIC [22]: 32 µg/mL (≈ 107 µM)
MIC [23]: 64 µg/mL (≈ 214 µM)
MIC [24]: 64 µg/mL (≈ 214 µM)
MIC [25]: 8 µg/mL (≈ 26.7 µM)
MIC [26]: 8 µg/mL (≈ 26.7 µM)
MIC [27]: 32 µg/mL (≈ 107 µM)
MIC [28]: 32 µg/mL (≈ 107 µM)
MIC [29]: 8 µg/mL (≈ 26.7 µM)
MIC [30]: 8 µg/mL (≈ 26.7 µM)
MIC [31]: 32 µg/mL (≈ 107 µM)
MIC [32]: 32 µg/mL (≈ 107 µM)
MIC [33]: 32 µg/mL (≈ 107 µM)
MIC [34]: 32 µg/mL (≈ 107 µM)
MIC [35]: 16 µg/mL (≈ 53.4 µM)
MIC [36]: 16 µg/mL (≈ 53.4 µM)
MIC [37]: 16 µg/mL (≈ 53.4 µM)
MIC [38]: 16 µg/mL (≈ 53.4 µM)
MIC [39]: 32 µg/mL (≈ 107 µM)
MIC [40]: 32 µg/mL (≈ 107 µM)
MIC [41]: 64 µg/mL (≈ 214 µM)
MIC [42]: 64 µg/mL (≈ 214 µM)
MIC [43]: 4 µg/mL (≈ 13.4 µM)
MIC [44]: 4 µg/mL (≈ 13.4 µM)
MIC50 [45]: 32 µg/mL (≈ 107 µM)
MIC90 [45]: 64 µg/mL (≈ 214 µM)
MIC50 [46]: 32 µg/mL (≈ 107 µM)
MIC90 [46]: 64 µg/mL (≈ 214 µM)
MIC50 [47]: 32 µg/mL (≈ 107 µM)
MIC90 [47]: 64 µg/mL (≈ 214 µM)
SMILES: C[C@@H](O)[C@H]1C(=O)N2C(C(=O)O)=C(SCCN=CN)C[C@H]12 [IMP, imipenem]

MIC50 [1]: 64 µg/mL (≈ 99.1 µM)
MIC90 [1]: 512 µg/mL (≈ 793 µM)
MIC Range [1]: 8 to 512 µg/mL
MIC50 [2]: 64 µg/mL (≈ 99.1 µM)
MIC90 [2]: 512 µg/mL (≈ 793 µM)
MIC Range [2]: 8 to 512 µg/mL
MIC50 [3]: 64 µg/mL (≈ 99.1 µM)
MIC90 [3]: 512 µg/mL (≈ 793 µM)
MIC Range [3]: 8 to 512 µg/mL
MIC50 [4]: 64 µg/mL (≈ 99.1 µM)
MIC90 [4]: 512 µg/mL (≈ 793 µM)
MIC Range [4]: 8 to 512 µg/mL
MIC50 (Pseudomonas aeruginosa): 64 µg/mL (≈ 99.1 µM)
MIC90 (Pseudomonas aeruginosa): 512 µg/mL (≈ 793 µM)
MIC [5]: 128 µg/mL (≈ 198 µM)
MIC [6]: 128 µg/mL (≈ 198 µM)
MIC [7]: 256 µg/mL (≈ 396 µM)
MIC [8]: 256 µg/mL (≈ 396 µM)
MIC [9]: 16 µg/mL (≈ 24.8 µM)
MIC [10]: 16 µg/mL (≈ 24.8 µM)
MIC [11]: 8 µg/mL (≈ 12.4 µM)
MIC [12]: 8 µg/mL (≈ 12.4 µM)
MIC [13]: 512 µg/mL (≈ 793 µM)
MIC [14]: 512 µg/mL (≈ 793 µM)
MIC [15]: 512 µg/mL (≈ 793 µM)
MIC [16]: 512 µg/mL (≈ 793 µM)
MIC [17]: 512 µg/mL (≈ 793 µM)
MIC [18]: 512 µg/mL (≈ 793 µM)
MIC [19]: 16 µg/mL (≈ 24.8 µM)
MIC [20]: 16 µg/mL (≈ 24.8 µM)
MIC [21]: 64 µg/mL (≈ 99.1 µM)
MIC [22]: 64 µg/mL (≈ 99.1 µM)
MIC [23]: 8 µg/mL (≈ 12.4 µM)
MIC [24]: 8 µg/mL (≈ 12.4 µM)
MIC [25]: 8 µg/mL (≈ 12.4 µM)
MIC [26]: 8 µg/mL (≈ 12.4 µM)
MIC [27]: 512 µg/mL (≈ 793 µM)
MIC [28]: 512 µg/mL (≈ 793 µM)
MIC [29]: 256 µg/mL (≈ 396 µM)
MIC [30]: 256 µg/mL (≈ 396 µM)
MIC [31]: 8 µg/mL (≈ 12.4 µM)
MIC [32]: 8 µg/mL (≈ 12.4 µM)
MIC [33]: 64 µg/mL (≈ 99.1 µM)
MIC [34]: 64 µg/mL (≈ 99.1 µM)
MIC [35]: > 512 µg/mL
MIC [36]: > 512 µg/mL
MIC [37]: 16 µg/mL (≈ 24.8 µM)
MIC [38]: 16 µg/mL (≈ 24.8 µM)
MIC [39]: 256 µg/mL (≈ 396 µM)
MIC [40]: 256 µg/mL (≈ 396 µM)
MIC [41]: 64 µg/mL (≈ 99.1 µM)
MIC [42]: 64 µg/mL (≈ 99.1 µM)
MIC [43]: > 512 µg/mL
MIC [44]: > 512 µg/mL
MIC50 [45]: 64 µg/mL (≈ 99.1 µM)
MIC90 [45]: 512 µg/mL (≈ 793 µM)
MIC50 [46]: 64 µg/mL (≈ 99.1 µM)
MIC90 [46]: 512 µg/mL (≈ 793 µM)
MIC50 [47]: 64 µg/mL (≈ 99.1 µM)
MIC90 [47]: 512 µg/mL (≈ 793 µM)
MIC (single use) (strain P16, EA=P. clypearia 10% ethanol extract): 1024 µg/mL (≈ 1590 µM)
MIC (single use) (strain P16, EA=P. clypearia water extract): 1024 µg/mL (≈ 1590 µM)
MIC (single use) (strain P20, EA=P. clypearia 10% ethanol extract): 1024 µg/mL (≈ 1590 µM)
MIC (single use) (strain P20, EA=P. clypearia water extract): 1024 µg/mL (≈ 1590 µM)
SMILES: CCN1CCN(C(=O)N[C@@H](C(=O)N[C@@H]2C(=O)N3C(C(=O)O)=C(CSc4nnnn4C)CS[C@H]23)c2ccc(O)cc2)C(=O)C1=O [CFP, Cefoperazone]
